Assay results taken from patent US20210283163A1, “COMPOSITIONS AND METHODS FOR THE TREATMENT OF ACUTE AND CHRONIC PRURITIS” (Duke University, priority 2018, published 2021).
Like-named read-outs stand apart in the source and are kept apart here.

Experiments:
[1] = system: CTCL mice; experiment: Mouse CTCL xenograft model of chronic itch; assay type: in vivo; conditions: given 20 days after Myla cell inoculation; for effect on CTCL-evoked chronic itch: hsa-miR-711 inhibitor 100 μM, HC030031 200 μM, A967079 50 μM, peptides 2 mM
Procedure: Mouse CTCL Xenograft Model of Chronic Itch. We developed a murine xenograft model of cutaneous T cell lymphoma (CTCL) using immune-deficient mice (NOD.CB17-Prkdcscid, 8-10 weeks old, male). CD4^+ MyLa cell line was purchased from Sigma (Ca #95051032). The cell line was established from a plaque biopsy of a person with mycosis fungoides stage II by inclusion of IL-2 and IL-4 in the culture medium. CTCL was generated via intradermal injection of CD4^+ Myla cells (1×10^5 cells/μl, 100 μL) on the nape of the neck. Tumor growth was assessed for 40 days by measurements of tumor diameters.
(§1) Behavioral Assessment for Scratching (Itch) and Wiping (Pain). Mice were shaved on the cheek or nape after a brief anesthesia with isoflurane. Before experiments, mice were habituated in small plastic chambers (14×18×12 cm) daily for two days. The room temperature and humidity remained stable for all the experiments. […] After the injection, the number of scratches in 60 min was counted. A scratch was counted when a mouse lifted its hind paw to scratch the shaved region and returned the paw to the floor or to the mouth. A bout of wiping was defined as a continuous wiping movement with a forepaw directing at the area of the injection area (Shimada and LaMotte, Pain 2008, 139, 681-687). Scratching and wiping behavior was videoed for 30 min or 60 min using Sony HDR-CX610 camera. The video was subsequently played back offline and the numbers of scratches and wipes were quantified in a blinded manner.
Generation of Myla Stable Cell Line Expressing miR-711 Inhibitor. CD4^+ Myla cells were plated at a density of 2×10^5 cells/mL in 2 mL culture media in 6-well plates. For each well, 20 μL of the MISSION Lenti microRNA Inhibitor (hsa-miR-711) lentivirus (Sigma) with a titer of 2.6×10^7 Tu/mL were added. Cell mixtures were incubated at 37° C. for 48 hr, washed with PBS three times, and re-suspended in fresh culture media, and 24 hr later, 1 μg/mL puromycin was added to the cells to select stably transduced cell populations. We tried to grow and passage the cells as much as necessary (usually 3 days) and maintained selection pressure by keeping 1 μg/mL puromycin in the medium. After 4 weeks, a large number of the cells were killed; the remaining cells retained the expression of the plasmid, which stably integrates into the genome of the targeted cells. These cells were used for inoculation to generate the CTCL model for testing the effects of miR-711 inhibitor on chronic itch and tumor growth.

[2] = system: mice; experiment: Persistent itch after intradermal adenovirus (AV) overexpression of hsa-miR-711; assay type: in vivo, mouse; conditions: 10 days after the AV injection, A-967079 50 μM, hsa-miR-711 inhibitor 100 μM, blocking peptide 2 μM
Procedure: as §1
miRNA Measurement by Quantitative Real-Time RT-PCR (qPCR). Total RNA was isolated from serum of CTCL mice or adenovirus-treated mice using Qiazol Lysis Reagent (QIAGEN) together with miRNeasy Serum/Plasma Kit (Park et al., Neuron 2014, 82, 47-54). All RNA samples were immediately used or kept at −80° C. until further processing. To convert mature miRNA into cDNA, 6 μl of total RNA solution were reverse transcribed using the miScript II RT Kit (including polyadenylation of miRNAs and reverse transcription using an oligo-dT that binds to a universal RT-sequence). Specific miRNA levels were quantified by qPCR using miScript SYBR Green Kit including miScript miRNA assay for hsa-miR-711, hsa-miR21, hsamiR155, and hsa-miR-326, together with the universal RT primer, according to the manufacturer's protocol (CFX96 Real-Time system, Bio-Rad). Relative quantities of miRNAs were calculated using the Ct value after normalization to control miRNAs. Caenorhabditis elegans miRNA-39 (cel-miRNA-39) was included as spiked-in control for extracellular miRNA.

[3] = system: naive mice; assay type: in vivo, mouse
Procedure: as §1

[4] = system: mice; experiment: Evans blue extravasation, neurogenic inflammation in a hind paw; assay type: in vivo, mouse; conditions: intraplantar, 10 μL; capsaicin 1 mM, AITC 5 mM, miR-711 1 mM
Procedure: Evans Blue Extravasation. To examine neurogenic inflammation in a hind paw (Han et al., Neuron 2016, 92, 1279-1293), mice were anesthetized with 5% isoflurane. Evans blue (50 mg/kg body weight) was given intravenously 10 min before neurogenic irritant application. […] Evans blue was extracted from the tissues by incubation in 400 μL formamide at 37° C. for 48 hr. Evans blue was quantified by measuring the optical density of the formamide extract at 620 nm. Absorbance was normalized to per gram of tissue weight.

[5] = high concentrations, 5 and 10 mM, 5 μL
[6] = low concentrations, 10 and 100 μM

For CCC(=N\O)/C(C)=C/c1ccc(F)cc1 [A967079, (1E,3E)-1-(4-Fluorophenyl)-2-methyl-1-pentene-3-one oxime], the “effect on CTCL-evoked chronic itch” value [1] was “suppressed” and the “effect on hsa-miR-711 AV-induced persistent itch” value [2] was “Inhibition”.
For C=CCN=C=S [AITC], the “scratching after intradermal cheek injection” value [3, 5] was “not scratching”, the “wiping after intradermal cheek injection” value [3, 5] was “induced wiping” and the “itch after intradermal cheek injection” value [3, 6] was “mild itch”. For the same compound, the “pain after intradermal cheek injection” value [3, 6] was “no pain”, the “scratching (itch) after intradermal cheek injection” value (“scratching (itch)” below) ([3]; naive mice, 1 mM, 5 μL) was “induced both scratching and wiping” and the “wiping (pain) after intradermal cheek injection” value ([3]; naive mice, 1 mM, 5 μL) was “induced both scratching and wiping”. For the same compound, the “neurogenic inflammation in hind paws (Evans blue test)” value [4] was “elicited robust neurogenic inflammation”.
“NH2-FRNELAYPVLTFGQL-COOH (H-FRNELAYPVLTFGQL-OH) [blocking peptide]” was tested, and the “duration of reduction of CTCL-evoked chronic itch” value ([1]; 2 mM) was “more than 5 hr”, the “effect on CTCL-evoked chronic itch” value [1] was “effectively reduced” and the “effect on hsa-miR-711 AV-induced persistent itch” value [2] was “Inhibition”.
For “miR-711: mmu-miR-711: gggacccggggagagauguaag (SEQ ID NO: 5) (GGGACCCGGGGAGAGAUGUAAG; chemistry not given here)”, the “scratching after intradermal cheek injection” value ([3]; 0.01 and 0.1 mM) was “mild but significant scratching”, the “miR-711-induced pruritus in knockout mice” value ([3]; Tlr7−/− mice versus WT) was “unaltered” and the “miR-711-induced acute itch in knockout mice” value ([3]; Trpa1−/− mice versus WT) was “abrogated”. For the same compound, the “pain (wiping) after intradermal cheek injection” value ([3]; all the concentrations tested) was “failed to evoke pain (wiping)”, the “onset (latency) of pruritus” value ([3]; compared with chloroquine (CQ) and histamine, first 60 sec) was “very rapid, with a shorter latency” and the “scratching after intradermal cheek injection” value ([3]; highest dose, 5 mM, 5 μL) was 395.2±32.8 bouts per hour. For the same compound, the “scratching (itch)” value ([3]; naive mice, 1 mM, 5 μL) was “evoked marked scratching”, the “scratching (itch)” value ([3]; naive mice, 1 mM, 5 μL, listed as mmu-miR-711) was “able to evoke pruritus” and the “neurogenic inflammation in hind paws (Evans blue test)” value [4] was “failed to elicit neurogenic inflammation”.
